# How the values were obtained:
# Acetylcholinesterase [1] = target: T1, Acetylcholinesterase (Homo sapiens, UniProt P22303); test: Inhibition of AChE in erythrocytes (unknown origin) pre-incubated for 20 mins before acetylthiocholine substrate addition and measured over 30 mins by DTNB dye based spectrophotometry; assay type: cell-based
# Acetylcholinesterase [2] = target: T1, Acetylcholinesterase; test: Inhibition of AChE in erythrocytes (unknown origin) pre-incubated for 20 mins before acetylthiocholine substrate addition and measured over 30 mins by DTNB dye based spectrophotometry relative to untreated control; assay type: cell-based
# [3] = Antioxidant activity assessed as DPPH radical scavenging activity incubated for 15 to 20 mins by UV-visible spectrometry; assay type: functional
# [4] = Antioxidant activity assessed as DPPH radical scavenging activity incubated for 15 to 20 mins by UV-visible spectrometry relative to untreated control; assay type: functional
# T1 sequence (P22303 whole entry): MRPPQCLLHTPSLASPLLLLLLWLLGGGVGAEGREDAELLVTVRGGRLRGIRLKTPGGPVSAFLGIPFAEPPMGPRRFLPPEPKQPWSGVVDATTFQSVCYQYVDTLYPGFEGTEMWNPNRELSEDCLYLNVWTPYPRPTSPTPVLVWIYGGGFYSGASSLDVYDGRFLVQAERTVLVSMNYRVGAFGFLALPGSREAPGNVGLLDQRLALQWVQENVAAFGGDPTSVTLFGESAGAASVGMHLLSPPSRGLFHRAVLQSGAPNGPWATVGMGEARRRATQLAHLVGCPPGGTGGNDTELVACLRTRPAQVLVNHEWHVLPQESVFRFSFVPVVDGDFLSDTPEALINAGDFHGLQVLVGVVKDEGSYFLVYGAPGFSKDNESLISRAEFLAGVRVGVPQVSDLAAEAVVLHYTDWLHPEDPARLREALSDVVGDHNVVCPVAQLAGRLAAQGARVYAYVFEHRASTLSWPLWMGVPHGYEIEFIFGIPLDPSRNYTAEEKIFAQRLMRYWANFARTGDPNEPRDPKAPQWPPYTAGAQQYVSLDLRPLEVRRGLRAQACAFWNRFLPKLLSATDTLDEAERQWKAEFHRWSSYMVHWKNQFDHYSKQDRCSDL
Structure (SMILES),IC50 (Acetylcholinesterase [1]),inhibition (Acetylcholinesterase [1]),inhibition (Acetylcholinesterase [2]),IC50 [3],inhibition [4]
Brc1ccc(-c2nnn3c2C2c4ccccc4CCN2Cc2ccccc2-3)cc1 (stereo unspecified),250 nM,Dose-dependent effect,< 95%,86.2 nM,96.1%
Cn1c(=O)c2c(ncn2C)n(C)c1=O,,Dose-dependent effect,,,
O=C1O[C@H]([C@@H](O)CO)C(O)=C1O [ASCORBIC ACID],,,,1250 nM,80.2%
c1ccc(-c2nnn3c2C2CCCCN2Cc2cc4c(cc2-3)OCO4)cc1 (stereo unspecified),,Dose-dependent effect,,94.8 nM,92.3%
Fc1ccc(-c2nnn3c2C2c4ccccc4CCN2Cc2ccccc2-3)cc1 (stereo unspecified),,Dose-dependent effect,,,
Cc1ccc(-c2nnn3c2C2c4ccccc4CCN2Cc2ccccc2-3)cc1 (stereo unspecified),,Dose-dependent effect,,,
c1ccc(-c2nnn3c2C2c4ccccc4CCN2Cc2cc4c(cc2-3)OCO4)cc1 (stereo unspecified),,Dose-dependent effect,,,
c1ccc(-c2nnn3c2C2c4ccccc4CCN2Cc2ccccc2-3)cc1 (stereo unspecified),,Dose-dependent effect,,,
c1ccc(-c2nnn3c2C2CCCN2Cc2cc4c(cc2-3)OCO4)cc1 (stereo unspecified),,Dose-dependent effect,,,

# Reference: ChEMBL document CHEMBL4392850, “Cu-mediated synthesis of differentially substituted diazepines as AChE inhibitors; validation through molecular docking and Lipinski's filter to develop novel anti-neurodegenerative drugs” (Bioorg Med Chem Lett, 2019)
